According to patent publication US20230085307A1, “PYRIDAZINONE COMPOUND AND HERBICIDE” (NISSAN CHEMICAL CORPORATION, priority 2019, published 2023):

Experiments:
redroot pigweed [1] = assay: Test Example 5: herbicidal effect by foliage application, plastic box (Table 20, symbol N); format: in vivo, redroot pigweed (Amaranthus retroflexus); conditions: foliage application, 320 g/ha, evaluated three weeks after application
Method in brief: (§1)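 Post-emergence foliar test in sterilized diluvial soil. Compound applied as water-diluted emulsion at a predetermined rate to 14-day-old plants; evaluation at three weeks.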

southern crabgrass [2] = assay: Test Example 4: herbicidal effect by soil treatment (Table 19, symbol F); format: in vivo, southern crabgrass (Digitaria ciliaris); conditions: amount of applied herbicide 320 g/ha
Method in brief: (§2)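 Emulsion of test compound, water-diluted to predetermined amount, sprayed on soil after sowing (seed depth ~1.5 cm, sterilized diluvial soil). Greenhouse, 25–30° C. Effect graded at three weeks post-spray.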

southern crabgrass [3] = assay: Test Example 5: herbicidal effect by foliage application, plastic box (Table 20, symbol F); format: in vivo, southern crabgrass (Digitaria ciliaris); conditions: foliage application, 320 g/ha, evaluated three weeks after application
Method in brief: as §1

green foxtail [4] = assay: Test Example 5: herbicidal effect by foliage application, plastic box (Table 20, symbol G); format: in vivo, green foxtail (Setaria viridis); conditions: foliage application, 320 g/ha, evaluated three weeks after application
Method in brief: as §1

false cleavers [5] = assay: Test Example 5: herbicidal effect by foliage application, plastic box (Table 20, symbol Q); format: in vivo, false cleavers (Galium spurium); conditions: foliage application, 320 g/ha, evaluated three weeks after application
Method in brief: as §1

wild oat [6] = assay: Test Example 4: herbicidal effect by soil treatment (Table 19, symbol I); format: in vivo, wild oat (Avena fatua); conditions: amount of applied herbicide 320 g/ha
Method in brief: as §2

lambsquarters [7] = assay: Test Example 4: herbicidal effect by soil treatment (Table 19, symbol O); format: in vivo, lambsquarters (Chenopodium album); conditions: amount of applied herbicide 320 g/ha
Method in brief: as §2

lambsquarters [8] = assay: Test Example 5: herbicidal effect by foliage application, plastic box (Table 20, symbol O); format: in vivo, lambsquarters (Chenopodium album); conditions: foliage application, 320 g/ha, evaluated three weeks after application
Method in brief: as §1

windgrass [9] = assay: Test Example 5: herbicidal effect by foliage application, plastic box (Table 20, symbol L); format: in vivo, windgrass (Apera spica-venti); conditions: foliage application, 320 g/ha, evaluated three weeks after application
Method in brief: as §1

velvetleaf [10] = assay: Test Example 4: herbicidal effect by soil treatment (Table 19, symbol M); format: in vivo, velvetleaf (Abutilon theophrasti); conditions: amount of applied herbicide 320 g/ha
Method in brief: as §2

blackgrass [11] = assay: Test Example 5: herbicidal effect by foliage application, plastic box (Table 20, symbol J); format: in vivo, blackgrass (Alopecurus myosuroides); conditions: foliage application, 320 g/ha, evaluated three weeks after application
Method in brief: as §1

barnyard grass [12] = assay: Test Example 3: herbicidal effect by foliage application, Wagner pot (Table 18, symbol H); format: in vivo, barnyard grass (Echinochloa crus-galli)
Method in brief: (§3)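 Plants were sown in alluvial soil held under 0.1–0.5 cm standing water and grown 14 days in a greenhouse at 25–30 °C. An emulsifiable formulation, water-diluted to the set dose, was then sprayed onto the foliage, and effects were scored three weeks later using previously defined criteria.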

barnyard grass [13] = assay: Test Example 5: herbicidal effect by foliage application, plastic box (Table 20, symbol H); format: in vivo, barnyard grass (Echinochloa crus-galli); conditions: foliage application, 320 g/ha, evaluated three weeks after application
Method in brief: as §1

false cleavers [14] = assay: Test Example 4: herbicidal effect by soil treatment (Table 19, symbol Q); format: in vivo, false cleavers (Galium spurium); conditions: amount of applied herbicide 320 g/ha
Method in brief: as §2

persian speedwell [15] = assay: Test Example 4: herbicidal effect by soil treatment (Table 19, symbol R); format: in vivo, Persian speedwell (Veronica persica); conditions: amount of applied herbicide 320 g/ha
Method in brief: as §2

chickweed [16] = assay: Test Example 4: herbicidal effect by soil treatment (Table 19, symbol P); format: in vivo, common chickweed (Stellaria media); conditions: amount of applied herbicide 320 g/ha
Method in brief: as §2

chickweed [17] = assay: Test Example 5: herbicidal effect by foliage application, plastic box (Table 20, symbol P); format: in vivo, common chickweed (Stellaria media); conditions: foliage application, 320 g/ha, evaluated three weeks after application
Method in brief: as §1

windgrass [18] = assay: Test Example 4: herbicidal effect by soil treatment (Table 19, symbol L); format: in vivo, windgrass (Apera spica-venti); conditions: amount of applied herbicide 320 g/ha
Method in brief: as §2

persian speedwell [19] = assay: Test Example 5: herbicidal effect by foliage application, plastic box (Table 20, symbol R); format: in vivo, Persian speedwell (Veronica persica); conditions: foliage application, 320 g/ha, evaluated three weeks after application
Method in brief: as §1

wild oat [20] = assay: Test Example 5: herbicidal effect by foliage application, plastic box (Table 20, symbol I); format: in vivo, wild oat (Avena fatua); conditions: foliage application, 320 g/ha, evaluated three weeks after application
Method in brief: as §1

Chinese sprangletop = assay: Test Example 3: herbicidal effect by foliage application, Wagner pot (Table 18, symbol D); format: in vivo, chinese sprangletop (Leptochloa chinensis)
Method in brief: as §3

barnyard grass [21] = assay: Test Example 4: herbicidal effect by soil treatment (Table 19, symbol H); format: in vivo, barnyard grass (Echinochloa crus-galli); conditions: amount of applied herbicide 320 g/ha
Method in brief: as §2

velvetleaf [22] = assay: Test Example 5: herbicidal effect by foliage application, plastic box (Table 20, symbol M); format: in vivo, velvetleaf (Abutilon theophrasti); conditions: foliage application, 320 g/ha, evaluated three weeks after application
Method in brief: as §1

Italian ryegrass [23] = assay: Test Example 5: herbicidal effect by foliage application, plastic box (Table 20, symbol K); format: in vivo, Italian ryegrass (Lolium multiflorum); conditions: foliage application, 320 g/ha, evaluated three weeks after application
Method in brief: as §1

redroot pigweed [24] = assay: Test Example 4: herbicidal effect by soil treatment (Table 19, symbol N); format: in vivo, redroot pigweed (Amaranthus retroflexus); conditions: amount of applied herbicide 320 g/ha
Method in brief: as §2

rice flat sedge = assay: Test Example 3: herbicidal effect by foliage application, Wagner pot (Table 18, symbol E); format: in vivo, rice flat sedge (Cyperus iria)
Method in brief: as §3

blackgrass [25] = assay: Test Example 4: herbicidal effect by soil treatment (Table 19, symbol J); format: in vivo, blackgrass (Alopecurus myosuroides); conditions: amount of applied herbicide 320 g/ha
Method in brief: as §2

green foxtail [26] = assay: Test Example 4: herbicidal effect by soil treatment (Table 19, symbol G); format: in vivo, green foxtail (Setaria viridis); conditions: amount of applied herbicide 320 g/ha
Method in brief: as §2

Italian ryegrass [27] = assay: Test Example 4: herbicidal effect by soil treatment (Table 19, symbol K); format: in vivo, Italian ryegrass (Lolium multiflorum); conditions: amount of applied herbicide 320 g/ha
Method in brief: as §2

[28] = amount of applied herbicide 320 g/ha

SMILES: CCOc1ccccc1-c1sc2ccc(Cl)cc2c1-c1c(O)c(C)nn(C)c1=O [2-105]
- herbicidal effect on N: redroot pigweed (redroot pigweed [1]): 5 (Herbicidal rate of 90% or more (almost completely withered))
- F: southern crabgrass, herbicidal effect rating (southern crabgrass [2]): 3 (Herbicidal rate of 40% or more and less than 70%)
- herbicidal effect on F: southern crabgrass (southern crabgrass [3]): 4 (Herbicidal rate of 70% or more and less than 90%)
- herbicidal effect on G: green foxtail (green foxtail [4]): 0 (Herbicidal rate of 5% or less (almost no effect))
- herbicidal effect on Q: false cleavers (false cleavers [5]): 5 (Herbicidal rate of 90% or more (almost completely withered))
- I: wild oat, herbicidal effect rating (wild oat [6]): 0 (Herbicidal rate of 5% or less (almost no effect))
- O: lambsquarters, herbicidal effect rating (lambsquarters [7]): 4 (Herbicidal rate of 70% or more and less than 90%)
- herbicidal effect on O: lambsquarters (lambsquarters [8]): 3 (Herbicidal rate of 40% or more and less than 70%)
- herbicidal effect on L: windgrass (windgrass [9]): 0 (Herbicidal rate of 5% or less (almost no effect))
- M: velvetleaf, herbicidal effect rating (velvetleaf [10]): 3 (Herbicidal rate of 40% or more and less than 70%)
- herbicidal effect on J: blackgrass (blackgrass [11]): 0 (Herbicidal rate of 5% or less (almost no effect))
- herbicidal effect on H (barnyard grass), rating 0-5 (barnyard grass [12]; 320 g/ha): 4 (Herbicidal rate of 70% or more and less than 90%)
- herbicidal effect on H: barnyard grass (barnyard grass [13]): 0 (Herbicidal rate of 5% or less (almost no effect))
- Q: false cleavers, herbicidal effect rating (false cleavers [14]): 4 (Herbicidal rate of 70% or more and less than 90%)
- R: persian speedwell, herbicidal effect rating (persian speedwell [15]): 3 (Herbicidal rate of 40% or more and less than 70%)
- P: chickweed, herbicidal effect rating (chickweed [16]): 3 (Herbicidal rate of 40% or more and less than 70%)
- herbicidal effect on P: chickweed (chickweed [17]): 5 (Herbicidal rate of 90% or more (almost completely withered))
- L: windgrass, herbicidal effect rating (windgrass [18]): 0 (Herbicidal rate of 5% or less (almost no effect))
- herbicidal effect on R: persian speedwell (persian speedwell [19]): 5 (Herbicidal rate of 90% or more (almost completely withered))
- herbicidal effect on I: wild oat (wild oat [20]): 1 (Herbicidal rate of 5% or more and less than 20%)
- herbicidal effect on D (Chinese sprangletop), rating 0-5 (Chinese sprangletop; 320 g/ha): 0 (Herbicidal rate of 5% or less (almost no effect))
- H: barnyard grass, herbicidal effect rating (barnyard grass [21]): 3 (Herbicidal rate of 40% or more and less than 70%)
- herbicidal effect on M: velvetleaf (velvetleaf [22]): 5 (Herbicidal rate of 90% or more (almost completely withered))
- herbicidal effect on K: Italian ryegrass (Italian ryegrass [23]): 0 (Herbicidal rate of 5% or less (almost no effect))
- N: redroot pigweed, herbicidal effect rating (redroot pigweed [24]): 5 (Herbicidal rate of 90% or more (almost completely withered))
- herbicidal effect on E (rice flat sedge), rating 0-5 (rice flat sedge; 320 g/ha): 3 (Herbicidal rate of 40% or more and less than 70%)
- J: blackgrass, herbicidal effect rating (blackgrass [25]): 0 (Herbicidal rate of 5% or less (almost no effect))
- G: green foxtail, herbicidal effect rating (green foxtail [26]): 2 (Herbicidal rate of 20% or more and less than 40%)
- K: Italian ryegrass, herbicidal effect rating (Italian ryegrass [27]): 0 (Herbicidal rate of 5% or less (almost no effect))

SMILES: CCCC(=O)Oc1c(C)nn(C)c(=O)c1-c1c(-c2ccc(OC)c(OC)c2)sc2ccc(Cl)cc12 [2-124]
- herbicidal effect on N: redroot pigweed (redroot pigweed [1]): 2 (Herbicidal rate of 20% or more and less than 40%)
- F: southern crabgrass, herbicidal effect rating (southern crabgrass [2]): 1 (Herbicidal rate of 5% or more and less than 20%)
- herbicidal effect on F: southern crabgrass (southern crabgrass [3]): 0 (Herbicidal rate of 5% or less (almost no effect))
- herbicidal effect on G: green foxtail (green foxtail [4]): 0 (Herbicidal rate of 5% or less (almost no effect))
- herbicidal effect on Q: false cleavers (false cleavers [5]): 0 (Herbicidal rate of 5% or less (almost no effect))
- I: wild oat, herbicidal effect rating (wild oat [6]): 0 (Herbicidal rate of 5% or less (almost no effect))
- O: lambsquarters, herbicidal effect rating (lambsquarters [7]): 3 (Herbicidal rate of 40% or more and less than 70%)
- herbicidal effect on O: lambsquarters (lambsquarters [8]): 0 (Herbicidal rate of 5% or less (almost no effect))
- herbicidal effect on L: windgrass (windgrass [9]): 0 (Herbicidal rate of 5% or less (almost no effect))
- M: velvetleaf, herbicidal effect rating (velvetleaf [10]): 0 (Herbicidal rate of 5% or less (almost no effect))
- herbicidal effect on J: blackgrass (blackgrass [11]): 0 (Herbicidal rate of 5% or less (almost no effect))
- herbicidal effect on H: barnyard grass (barnyard grass [12]; [28]): 3 (Herbicidal rate of 40% or more and less than 70%)
- herbicidal effect on H: barnyard grass (barnyard grass [13]): 0 (Herbicidal rate of 5% or less (almost no effect))
- Q: false cleavers, herbicidal effect rating (false cleavers [14]): 0 (Herbicidal rate of 5% or less (almost no effect))
- R: persian speedwell, herbicidal effect rating (persian speedwell [15]): 0 (Herbicidal rate of 5% or less (almost no effect))
- P: chickweed, herbicidal effect rating (chickweed [16]): 0 (Herbicidal rate of 5% or less (almost no effect))
- herbicidal effect on P: chickweed (chickweed [17]): 2 (Herbicidal rate of 20% or more and less than 40%)
- L: windgrass, herbicidal effect rating (windgrass [18]): 0 (Herbicidal rate of 5% or less (almost no effect))
- herbicidal effect on R: persian speedwell (persian speedwell [19]): 5 (Herbicidal rate of 90% or more (almost completely withered))
- herbicidal effect on I: wild oat (wild oat [20]): 0 (Herbicidal rate of 5% or less (almost no effect))
- herbicidal effect on D: Chinese sprangletop (Chinese sprangletop; [28]): 1 (Herbicidal rate of 5% or more and less than 20%)
- H: barnyard grass, herbicidal effect rating (barnyard grass [21]): 0 (Herbicidal rate of 5% or less (almost no effect))
- herbicidal effect on M: velvetleaf (velvetleaf [22]): 1 (Herbicidal rate of 5% or more and less than 20%)
- herbicidal effect on K: Italian ryegrass (Italian ryegrass [23]): 0 (Herbicidal rate of 5% or less (almost no effect))
- N: redroot pigweed, herbicidal effect rating (redroot pigweed [24]): 0 (Herbicidal rate of 5% or less (almost no effect))
- herbicidal effect on E: rice flat sedge (rice flat sedge; [28]): 0 (Herbicidal rate of 5% or less (almost no effect))
- J: blackgrass, herbicidal effect rating (blackgrass [25]): 0 (Herbicidal rate of 5% or less (almost no effect))
- G: green foxtail, herbicidal effect rating (green foxtail [26]): 0 (Herbicidal rate of 5% or less (almost no effect))
- K: Italian ryegrass, herbicidal effect rating (Italian ryegrass [27]): 0 (Herbicidal rate of 5% or less (almost no effect))
